In patent US5827720A, “α-glucosidase, and a process for producing the same” (priority 1995, dated 1998):

test system: α-glucosidase (the present enzyme) from Bacillus sp. KS-108a (FERM BP-5337); assay: Km value by Lineweaver-Burk plotting; type: biochemical; conditions: pH 7.0, 37° C., read-out: Km (PNPG as substrate)
Protocol: The measurement of the titer of the present enzyme was carried out in the following manner. The amount of the enzyme causing 1 μ mol paranitrophenol per minute to be released from PNPG was assumed as 1 U of the enzyme. (Preparation of a substrate solution, a buffer, a reaction terminating solution, and an enzyme diluent)
(§1) First, 0.25 ml of Solution 1 and 0.5 ml of Solution 2 were mixed and pre-incubated at 37° C. for 5 minutes, and then the solution was mixed with 0.25 ml enzyme solution (about 0.005 to 0.03 U/ml) and reacted accurately for 15 minutes at 37° C.
(§2) Then, the reaction was stopped by adding 1 ml of Solution 3 to the reaction solution and the paranitrophenol thus formed was colored. This sample was measured for absorbance at 400 nm in a spectrophotometer (U-2000A, Hitachi Ltd.).

Row | SMILES | Km [µM]
1 | O=[N+]([O-])c1ccc(O[C@H]2O[C@H](CO)[C@@H](O)[C@H](O)[C@H]2O)cc1 [PNPG, paranitrophenyl-α-D-glucopyranoside] | 55

test system: α-glucosidase (the present enzyme) from Bacillus sp. KS-108a (FERM BP-5337); assay: not given; type: biochemical; conditions: 0.01 ml of 22 mM inhibitor added to 0.1 ml enzyme in 100 mM HEPES-NaOH pH 7.0 with 0.2% BSA, 25° C., 1 hour; then diluted 100-fold, activity on PNPG; control = 100
Protocol: as §1, §2
The effect of treatment with various inhibitors was evaluated in the following manner.
0.1 ml of 0.0667 mg/ml of the present enzyme in 100 mM HEPES-NaOH buffer, pH 7.0 containing 0.2% BSA was added to 0.01 ml of 22 mM inhibitor (1.1% in the case of a surfactant as inhibitor) and incubated at 25° C. for 1 hour. Then, the sample was diluted 100-fold with 10 mM potassium phosphate buffer (pH 7.0) containing 0.2% BSA, and the remaining activity was determined in the same manner as above in titer measurement.

Row | SMILES | remaining activity (%)
2 | O=C(O)c1cc[c]([Hg][Cl])cc1 [PCMB, p-chloromercuribenzoic acid] | 97.7
3 | [N-]=[N+]=[N-] [sodium azide] | 105.0
4 | OCCS [2-mercaptoethanol] | 99.6
5 | c1cnc2c(c1)ccc1cccnc12 [o-phenanthroline] | 99.4
6 | CCN1C(=O)C=CC1=O [N-ethylmaleimide] | 107.5
7 | O[C@H](CS)[C@H](O)CS (racemic) [dithiothreitol] | 105.4
8 | O=C(O)c1ccccc1[N+](=O)[O-] [2-nitrobenzoic acid] | 102.7

same assay, conditions: 22 mM inhibitor stock, 25° C., 1 hour

Row | SMILES | effect of treatment with inhibitor on the enzyme (in words)
9 | O=C(O)c1cc[c]([Hg][Cl])cc1 [PCMB, p-chloromercuribenzoic acid] | not affected
10 | CCN1C(=O)C=CC1=O [N-ethylmaleimide] | not affected

same assay, conditions: pH 7

Row | SMILES | remaining activity (%)
11 | O=C(O)CN(CCN(CC(=O)O)CC(=O)O)CC(=O)O [EDTA-2Na] | 106.4
12 | O=C(O)CI [monoiodoacetic acid] | 98.5
13 | N[C@@H](CCC(=O)N[C@@H](CS)C(=O)NCC(=O)O)C(=O)O [glutathione] | 102.5
